{"source": "patent US20090092696A1", "about": "“Herbal combination omega oil aphrodisiac” (priority 2007, published 2009)", "origin": "cited, not measured here", "key": {"corpus cavernosum": {"test_system": "corpus cavernosum", "conditions": "for erection when injected directly into the corpus cavernosum: hypodermic needle injection; for duration of erection after injection: appropriate dose, intracavernosal"}, "impotent men": {"test_system": "impotent men", "conditions": "ingestion"}, "impotentia erectionis": {"test_system": "impotentia erectionis", "conditions": "buccal administration of 100 I.U. three times a day for 14 days"}}}
{"smiles": "CCN(CC)CCOC(=O)C(Cc1cccc2ccccc12)CC1CCCO1", "note": "(mixture of isomers) [naftidrofuryl]", "values": [{"measurement": "erection when injected directly into the corpus cavernosum", "setting": "corpus cavernosum", "value": "caused erection"}]}
{"smiles": "COC(=O)[C@@H]1[C@H]2C[C@H]3c4[nH]c5ccccc5c4CCN3C[C@@H]2CC[C@@H]1O", "note": "[Yohimbine]", "values": [{"measurement": "subjective improvement in erectile ability", "setting": "impotent men; impotent men treated", "value": 38, "unit": "%"}, {"measurement": "treated patients reporting complete satisfaction", "setting": "impotent men", "value": 5, "unit": "%"}]}
{"smiles": "CN(C)CCCN1c2ccccc2CCc2ccccc21", "note": "[imipramine]", "values": [{"measurement": "erection when injected directly into the corpus cavernosum", "setting": "corpus cavernosum", "value": "caused erection"}]}
{"smiles": "CC[C@H](C)[C@@H]1NC(=O)[C@H](Cc2ccc(O)cc2)NC(=O)[C@@H](N)CSSC[C@@H](C(=O)N2CCC[C@H]2C(=O)N[C@@H](CC(C)C)C(=O)NCC(N)=O)NC(=O)[C@H](CC(N)=O)NC(=O)[C@H](CCC(N)=O)NC1=O", "note": "[oxytocin]", "values": [{"measurement": "improvement of impotentia erectionis", "setting": "impotentia erectionis", "value": "12 of the 16"}]}
{"smiles": "COc1ccc(Cc2nccc3cc(OC)c(OC)cc23)cc1OC", "note": "[papaverine]", "values": [{"measurement": "duration of erection after injection", "setting": "corpus cavernosum", "value": "unrelenting erection lasting for hours"}, {"measurement": "erection when injected directly into the corpus cavernosum", "setting": "corpus cavernosum", "value": "caused erection"}]}
{"smiles": "CC(COc1ccccc1)N(CCCl)Cc1ccccc1", "note": "(stereo not drawn) [phenoxybenzamine]", "values": [{"measurement": "duration of erection after injection", "setting": "corpus cavernosum", "value": "unrelenting erection lasting for hours"}, {"measurement": "erection when injected directly into the corpus cavernosum", "setting": "corpus cavernosum", "value": "caused erection"}]}
{"smiles": "Cc1ccc(N(CC2=NCCN2)c2cccc(O)c2)cc1", "note": "[phentolamine]", "values": [{"measurement": "erection when injected directly into the corpus cavernosum", "setting": "corpus cavernosum", "value": "caused erection"}]}
{"smiles": "CC(=O)Oc1cc(C(C)C)c(OCCN(C)C)cc1C", "note": "[thymoxamine]", "values": [{"measurement": "erection when injected directly into the corpus cavernosum", "setting": "corpus cavernosum", "value": "caused erection"}]}
{"smiles": "COc1ccc(CCN(C)CCCC(C#N)(c2ccc(OC)c(OC)c2)C(C)C)cc1OC", "note": "(stereo not drawn) [verapamil]", "values": [{"measurement": "erection when injected directly into the corpus cavernosum", "setting": "corpus cavernosum", "value": "caused erection"}]}
